# According to patent US7504407B2, “Compounds specific to adenosine A1 and A3 receptors and uses thereof” (OSI Pharmaceuticals, Inc., priority 2001, dated 2009):
# Assays:
# [1] = molecular target: T1, human A1 adenosine receptor (Homo sapiens, UniProt P30542); conditions: cited from earlier work
# T1 sequence (P30542 1-326): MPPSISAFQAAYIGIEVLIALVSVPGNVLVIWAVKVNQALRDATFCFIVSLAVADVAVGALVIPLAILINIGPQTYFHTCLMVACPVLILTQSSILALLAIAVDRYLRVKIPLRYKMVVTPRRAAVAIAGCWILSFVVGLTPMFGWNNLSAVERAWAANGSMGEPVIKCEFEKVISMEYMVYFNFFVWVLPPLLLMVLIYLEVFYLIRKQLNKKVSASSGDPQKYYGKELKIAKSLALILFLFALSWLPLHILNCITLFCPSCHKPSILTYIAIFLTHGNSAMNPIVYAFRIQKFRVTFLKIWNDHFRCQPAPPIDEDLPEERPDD
# [2] = molecular target: T2, human A2a receptor subtype (Homo sapiens, UniProt P29274); assay: Adenosine 2a receptor subtype competition radioligand binding, [3H]CGS-21680, HEK293 membranes; conditions: @ 10 μM
# T2 construct: expressed in transfected cells; host or cells: HEK-293 (Cadus clone #5)
# T2 sequence (P29274 whole entry): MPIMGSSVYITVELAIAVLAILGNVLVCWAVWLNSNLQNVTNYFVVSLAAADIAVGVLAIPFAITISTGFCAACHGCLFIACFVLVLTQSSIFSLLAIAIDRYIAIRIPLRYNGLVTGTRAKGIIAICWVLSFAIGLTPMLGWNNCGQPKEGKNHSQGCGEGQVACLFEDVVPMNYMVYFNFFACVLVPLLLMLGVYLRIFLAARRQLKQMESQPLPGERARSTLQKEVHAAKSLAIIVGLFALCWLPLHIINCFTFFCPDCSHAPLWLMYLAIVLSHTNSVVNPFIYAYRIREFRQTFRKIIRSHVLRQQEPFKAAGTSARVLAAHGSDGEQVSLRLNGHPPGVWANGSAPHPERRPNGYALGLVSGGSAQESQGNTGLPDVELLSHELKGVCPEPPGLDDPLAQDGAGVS
# [3] = molecular target: T3, human A1 receptor subtype (Homo sapiens, UniProt P30542)
# T3 sequence (P30542 1-326): T1 sequence (P30542 1-326)
# [4] = molecular target: T4, human A3 receptor subtype (Homo sapiens, UniProt P0DMS8); assay: Adenosine 3 receptor competition radioligand binding, [125I]AB-MECA, HEK293 membranes; conditions: for properties relative to compound 1720: A3 affinity, A3/A1 selectivity, solubility as in Table 3
# T4 construct: expressed in transfected cells; host or cells: HEK293
# T4 sequence (P0DMS8 1-318): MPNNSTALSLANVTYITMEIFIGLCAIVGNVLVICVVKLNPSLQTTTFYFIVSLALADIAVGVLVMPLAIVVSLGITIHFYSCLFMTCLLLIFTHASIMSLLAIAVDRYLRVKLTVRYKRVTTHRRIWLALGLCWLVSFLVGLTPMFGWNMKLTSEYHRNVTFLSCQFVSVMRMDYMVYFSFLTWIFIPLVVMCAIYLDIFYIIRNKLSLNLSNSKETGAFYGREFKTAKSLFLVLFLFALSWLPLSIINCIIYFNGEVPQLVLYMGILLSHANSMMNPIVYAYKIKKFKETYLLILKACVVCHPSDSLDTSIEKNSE
SMILES,melting point,properties relative to compound 1720 [4],Binding Affinity for A3 receptor relative to compound 1720 [4],further results
"CC(Cc1ccccc1)Nc1ncnc2c1ncn2C1OC(CO)C(O)C1O (single isomer, unassigned; (-)) [R-PIA, (−)-N6-(2-phenylisopropyl)-adenosine]",,,,reported affinity [1]: approximately 50 nM
CNC(=O)NCCCNc1nc(-c2ccccc2)nc2[nH]c(C)c(C)c12 [Compound 1310],,,,% activity A2a [2]: 76%
"NC(=O)[C@@H]1C[C@@H](O)CN1c1nc(-c2ccccc2)nc2[nH]ccc12 [Compound 1631, (2S, 4R)-4-Hydroxy-1-(2-phenyl-7H-pyrrolo[2,3-d]pyrimidin-4-yl)-pyrrolidine-2-carboxylic acid amide methane sulfonate]",,,,A1 receptor binding affinity relative to reference compounds 1318 or 1319 [3]: equaled or surpassed
"c1ccc(-c2nc(NCCc3cnc[nH]3)c3cc[nH]c3n2)cc1 [Compound 1720, [2-(3H-Imidazol-4-yl)-ethyl]-(2-phenyl-7H-pyrrolo[2,3-d]pyrimidin-4-yl)-amine]",234 to 235 °C,,,A3 receptor binding affinity relative to reference compound 1308 ([4]; relative to reference compound 1308): greater than 10 times
Clc1cccc(-c2nc(NCCc3cnc[nH]3)c3cc[nH]c3n2)c1 [Compound 1721],,superior,Higher,
Clc1cccc(-c2nc(NCCc3ccccn3)c3cc[nH]c3n2)c1 [Compound 1722],199 to 200 °C,,,
Clc1cccc(-c2nc(NCCCn3ccnc3)c3cc[nH]c3n2)c1 [Compound 1723],183 to 185 °C,,,
Cc1cc2c(NCCc3c[nH]cn3)nc(-c3cccc(Cl)c3)nc2[nH]1 [Compound 1731],,superior,Similar,
c1ccc(-c2nc(N3CCc4nc[nH]c4C3)c3cc[nH]c3n2)cc1 [Compound 1733],,superior,Similar,
